The subject of the experiment is human monocytic cell line U937. The experiment in a line: Human U937 cellular necroptosis assay (TNFalpha + z-VAD-FMK, Cell Titer-Glo viability). It counts as cell-based. Particulars: Homo sapiens, U-937, 22 h, U937 cells, 25 ng/mL human TNFalpha + 25 μM z-VAD-FMK, read-out: hU937 Avg IC50. The method, then: The human monocytic cell line U937 (CRL-1593.2) was purchased from ATCC. The cells were routinely maintained in RPMI-1640 Medium (Gibco, Catalog #11875-093) supplemented with 10% heat inactivated fetal bovine serum (Gibco, Catalog #16140-071), 100 units/mL penicillin and 100 μg/mL streptomycin (Gibco, Catalog #15140-122), in a humidified incubator (37° C., 5% CO2). For the assay, cells were resuspended in RPMI-1640 phenol red free Media (Gibco, Catalog #11835-030) supplemented with 10% fetal bovine serum (Sigma, Catalog #F2442), 100 units/mL penicillin and 100 ug/mL streptomycin. Cells were stimulated with 25 ng/mL human TNFalpha (Cell Sciences, Catalog #CSI15659B) and 25 μM z-VAD-FMK (R&D Systems, Catalog #FMK001) followed by seeding 5000 cells per well in a volume of 40 μL to a white, CulturPlate-384 (Perkin Elmer, Catalog #6007680). Stock solutions of the test compounds were prepared in 100% DMSO (Sigma, Catalog #D2650) and serially diluted 1:3 using 100% DMSO. Compounds were additionally diluted 1:40 in assay medium, and 10 μL/well was transferred to the plate. Following the compound addition the plate was incubated at 37° C. and 5% CO2 for 22 h. After 22 h, viability was assessed with the addition of 20 μL of Cell Titer-Glo 2.0 (Promega, Catalog #G9243). The tissue culture plate was shaken on an orbital shaker at 300 RPM for 15 minutes at rt in the dark. Luminescence was measured using a PerkinElmer Envision™ plate reader. IC50 values were calculated using a four-parameter logistic curve fit using Genedata Screener software. Results are shown below in Table 3, where the average value across multiple runs is given.
(ATP-based viability assays read luminescence as a measure of living cells.)
The IC50 is the concentration at which inhibition is half-maximal. As to `N#Cc1ccc(OCC23CC(C(=O)N4N=CCC4c4cc(F)cc(F)c4)(C2)C3)cn1` (stereo not drawn) [Example 224, 5-((3-(5-(3,5-difluorophenyl)-4,5-dihydro-1H-pyrazole-1-carbonyl)bicyclo[1.1.1]pentan-1-yl)methoxy)picolinonitrile], the IC50 was determined as 51 nM.

As for `N#Cc1ccc(OCC23CC(C(=O)N4N=CCC4c4cc(F)c(Br)c(F)c4)(C2)C3)nc1` (stereo not drawn) [Example 275, 6-((3-(5-(4-bromo-3,5-difluorophenyl)-4,5-dihydro-1H-pyrazole-1-carbonyl)-bicyclo[1.1.1]pentan-1-yl)-methoxy)nicotinonitrile], the IC50 turned out to be 73 nM.

On to `Cc1ccccc1C1CC=NN1C(=O)C12CC(COc3ccc(C#N)cn3)(C1)C2` (stereo not drawn) [Example 314, 6-((3-(5-(o-tolyl)-4,5-dihydro-1H-pyrazole-1-carbonyl)-bicyclo[1.1.1]pentan-1-yl)-methoxy)nicotinonitrile], for which the IC50 is 475 nM.

Consider `Cc1cccc(C2CC=NN2C(=O)C23CC(COc4ccc(C#N)cn4)(C2)C3)c1` (stereo not drawn) [Example 279, 6-((3-(5-(m-tolyl)-4,5-dihydro-1H-pyrazole-1-carbonyl)-bicyclo[1.1.1]pentan-1-yl)-methoxy)nicotinonitrile], for which the IC50 turned out to be 104 nM.

As to `Cc1ccc(C2CC=NN2C(=O)C23CC(Cn4ncc5cc(C#N)ccc54)(C2)C3)cn1` (stereo not drawn) [Example 249, 1-((3-(5-(6-methylpyridin-3-yl)-4,5-dihydro-1H-pyrazole-1-carbonyl)bicyclo[1.1.1]-pentan-1-yl)methyl)-1H-indazole-5-carbonitrile], the IC50 was 299 nM.

As to `N#Cc1ccc2c(cnn2CC23CC(C(=O)N4N=CCC4c4ccc(C#N)s4)(C2)C3)c1` (stereo not drawn) [Example 251, 1-((3-(5-(5-cyanothiophen-2-yl)-4,5-dihydro-1H-pyrazole-1-carbonyl)bicyclo[1.1.1]-pentan-1-yl)methyl)-1H-indazole-5-carbonitrile], the IC50 stood at 397 nM.

As for `Cc1nc(C2CC=NN2C(=O)C23CC(COc4ccc(C#N)cn4)(C2)C3)ccc1F` (stereo not drawn) [Example 315, 6-((3-(5-(5-fluoro-6-methyl-pyridin-2-yl)-4,5-dihydro-1H-pyrazole-1-carbonyl)bicyclo-[1.1.1]pentan-1-yl)methoxy)-nicotinonitrile], the IC50 is 666 nM.

Turning to `C[C@@H](c1c(F)cccc1F)N(C)C(=O)C12CC(COc3cnc(C#N)cn3)(C1)C2` [Example 292, (S)-3-(((5-cyanopyrazin-2-yl)oxy)methyl)-N-(1-(2,6-difluorophenyl)ethyl)-N-methylbicyclo[1.1.1]pentane-1-carboxamide], the 50% inhibitory concentration (IC50) is 956 nM.

For the molecule `Cc1cccc(C2CC=NN2C(=O)C23CC(Cn4ncc5cc(C#N)ccc54)(C2)C3)c1` (stereo not drawn) [Example 243, 1-((3-(5-(m-tolyl)-4,5-dihydro-1H-pyrazole-1-carbonyl)-bicyclo[1.1.1]pentan-1-yl)-methyl)-1H-indazole-5-carbonitrile], the IC50 is 31 nM.

In the case of `N#Cc1ccc2c(cnn2CC23CC(C(=O)N4N=CCC4c4cccc(Cl)c4Cl)(C2)C3)c1` (stereo not drawn) [Example 245, 1-((3-(5-(2,3-dichlorophenyl)-4,5-dihydro-1H-pyrazole-1-carbonyl)bicyclo[1.1.1]pentan-1-yl)methyl)-1H-indazole-5-carbonitrile], the concentration for half-maximal inhibition (IC50) was determined as 43 nM.

For the molecule `C[C@@H](c1ccccc1F)N(C)C(=O)C12CC(COc3cnc(C#N)cn3)(C1)C2` [Example 295, (S)-3-(((5-cyanopyrazin-2-yl)oxy)methyl)-N-(1-(2-fluoro-phenyl)ethyl)-N-methyl-bicyclo[1.1.1]pentane-1-carboxamide], the IC50 was determined as 5680 nM.

In the case of `N#Cc1cnc(OCC23CC(C(=O)N4N=CCC4c4cn5ccccc5n4)(C2)C3)cn1` (stereo not drawn) [Example 317, 5-((3-(5-(imidazo[1,2-a]-pyridin-2-yl)-4,5-dihydro-1H-pyrazole-1-carbonyl)bicyclo-[1.1.1]pentan-1-yl)methoxy)-pyrazine-2-carbonitrile], the half-maximal inhibitory concentration (IC50) is 8510 nM.

Source of the values: US20250214942A1, “INHIBITORS OF RECEPTOR INTERACTING PROTEIN KINASE I FOR THE TREATMENT OF DISEASE” (Board of Regents, The University of Texas System, priority 2019, published 2025).
